In ChEMBL document CHEMBL2074230, “Interaction and transport of thiazide diuretics, loop diuretics, and acetazolamide via rat renal organic anion transporter rOAT1” (J Pharmacol Exp Ther, 2000):
Each block holds one molecule with its values, some of them ahead of it.

What was measured:
[1] = biological target: T1, Solute carrier family 22 member 6 (Rattus norvegicus, UniProt O35956); assay: TP_TRANSPORTER: uptake in Xenopus laevis oocytes; format: functional, cell-based; settings: oocyte
T1 sequence (O35956 whole entry): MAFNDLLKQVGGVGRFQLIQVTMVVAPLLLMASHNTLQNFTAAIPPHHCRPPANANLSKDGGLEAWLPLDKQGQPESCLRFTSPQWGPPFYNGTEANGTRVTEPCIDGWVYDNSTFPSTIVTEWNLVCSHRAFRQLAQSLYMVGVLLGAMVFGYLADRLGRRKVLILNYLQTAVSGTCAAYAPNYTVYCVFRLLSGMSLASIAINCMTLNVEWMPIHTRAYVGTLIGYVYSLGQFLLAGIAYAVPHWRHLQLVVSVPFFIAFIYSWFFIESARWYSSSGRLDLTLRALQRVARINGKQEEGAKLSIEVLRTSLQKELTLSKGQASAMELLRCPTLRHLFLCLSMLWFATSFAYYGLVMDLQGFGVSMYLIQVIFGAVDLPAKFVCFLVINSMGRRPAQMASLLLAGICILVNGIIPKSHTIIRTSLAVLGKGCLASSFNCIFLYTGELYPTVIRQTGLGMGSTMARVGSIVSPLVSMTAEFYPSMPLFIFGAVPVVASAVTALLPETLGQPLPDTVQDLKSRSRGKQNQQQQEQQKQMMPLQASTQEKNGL

[2] = biological target: T1, Solute carrier family 22 member 6; assay: TP_TRANSPORTER: inhibition of PAH uptake in Xenopus laevis oocytes; format: functional, cell-based, Oocyte; settings: for Activity: xenopus laevis, oocyte
[3] = substrate: Nc1ccc(C(=O)NCC(=O)O)cc1; assay: cells, lysate or membranes named

Activity [2]: inhibitor [+]
Molecule: NS(=O)(=O)c1cc2c(cc1Cl)NC(C1CC3C=CC1C3)NS2(=O)=O (stereo unspecified) [CYCLOTHIAZIDE]

Activity [2]: inhibitor [+]
Molecule: CCOc1ccc2nc(S(N)(=O)=O)sc2c1 [ETHOXZOLAMIDE]

Activity [1]: substrate [+] | Ki [2]: 9.5 µM
Molecule: NS(=O)(=O)c1cc(C(=O)O)c(NCc2ccco2)cc1Cl [FUROSEMIDE]

Ki [2]: 150 µM
Molecule: NS(=O)(=O)c1cc2c(cc1Cl)NCNS2(=O)=O [HYDROCHLOROTHIAZIDE]

Activity [2]: inhibitor [+]
Molecule: CC(=O)/N=c1/sc(S(N)(=O)=O)nn1C [METHAZOLAMIDE]

Second part, the molecule before the results:

Molecule: CC(=O)Nc1nnc(S(N)(=O)=O)s1 [ACETAZOLAMIDE]
Activity [1]: substrate [+] | Ki [2]: 1100 µM

Molecule: CCCCNc1cc(C(=O)O)cc(S(N)(=O)=O)c1Oc1ccccc1 [BUMETANIDE]
Ki [2]: 5.5 µM

Molecule: NS(=O)(=O)c1cc2c(cc1Cl)N=CNS2(=O)=O [CHLOROTHIAZIDE]
Activity [2]: inhibitor [+]

B1: Solute carrier family 22 member 6 (Rattus norvegicus) (protein)
chain: T1 sequence (O35956 whole entry)
Km [3]: 31 µM
